Each structure is given as a SMILES string. Where only a bound is given, the exact number is not on record here.

Chain of ROCK2 (human) (O75116 whole entry, looked up): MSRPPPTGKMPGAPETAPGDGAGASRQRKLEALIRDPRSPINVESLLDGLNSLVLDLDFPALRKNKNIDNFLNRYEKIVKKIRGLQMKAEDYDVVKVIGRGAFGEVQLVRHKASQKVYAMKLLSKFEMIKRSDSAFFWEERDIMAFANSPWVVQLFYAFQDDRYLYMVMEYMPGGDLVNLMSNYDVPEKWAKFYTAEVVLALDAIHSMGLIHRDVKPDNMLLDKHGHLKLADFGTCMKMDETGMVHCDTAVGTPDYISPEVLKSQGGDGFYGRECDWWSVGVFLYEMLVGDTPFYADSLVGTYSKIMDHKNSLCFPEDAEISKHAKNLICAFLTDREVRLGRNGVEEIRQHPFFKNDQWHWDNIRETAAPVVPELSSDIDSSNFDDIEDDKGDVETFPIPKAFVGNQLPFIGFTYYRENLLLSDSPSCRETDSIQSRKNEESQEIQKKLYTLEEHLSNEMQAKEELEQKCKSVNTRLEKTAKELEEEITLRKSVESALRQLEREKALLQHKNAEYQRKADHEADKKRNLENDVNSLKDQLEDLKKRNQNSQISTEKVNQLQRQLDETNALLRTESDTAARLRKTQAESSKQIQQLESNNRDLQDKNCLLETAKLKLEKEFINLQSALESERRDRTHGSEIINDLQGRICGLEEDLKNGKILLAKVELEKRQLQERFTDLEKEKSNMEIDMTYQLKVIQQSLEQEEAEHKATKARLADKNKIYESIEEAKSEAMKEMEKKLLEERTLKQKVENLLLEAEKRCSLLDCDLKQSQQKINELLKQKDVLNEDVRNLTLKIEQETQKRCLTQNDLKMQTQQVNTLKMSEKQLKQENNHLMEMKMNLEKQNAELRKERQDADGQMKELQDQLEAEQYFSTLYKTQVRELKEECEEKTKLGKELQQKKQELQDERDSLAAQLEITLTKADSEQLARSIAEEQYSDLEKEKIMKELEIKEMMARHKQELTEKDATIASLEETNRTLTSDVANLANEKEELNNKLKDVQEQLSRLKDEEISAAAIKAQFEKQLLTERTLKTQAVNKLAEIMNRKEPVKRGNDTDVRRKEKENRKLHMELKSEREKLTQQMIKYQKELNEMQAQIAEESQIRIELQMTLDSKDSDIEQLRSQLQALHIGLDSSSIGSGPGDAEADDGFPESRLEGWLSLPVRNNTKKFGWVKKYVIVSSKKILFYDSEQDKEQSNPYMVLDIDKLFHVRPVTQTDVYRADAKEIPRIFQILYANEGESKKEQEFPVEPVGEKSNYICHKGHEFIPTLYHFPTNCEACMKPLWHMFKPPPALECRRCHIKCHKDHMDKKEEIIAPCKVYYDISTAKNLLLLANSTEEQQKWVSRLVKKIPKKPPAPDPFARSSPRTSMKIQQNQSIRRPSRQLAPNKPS

This test has as its target ROCK2 (human) (UniProt O75116). As to the kind of experiment: Inhibition of ROCK2 Kinase Activity.
The term IC50 denotes the concentration that gives 50% inhibition. The low end stands for higher potency, the high end for lower potency. With `O=Cc1ccccc1OCC(=O)NCc1nc(-c2c[nH]c3ncccc23)n[nH]1`, the IC50 is greater than 5 µM.
Next, `O=C(NCc1nc(-c2c[nH]c3ncccc23)n[nH]1)c1ccc(C(F)(F)F)cc1[N+](=O)[O-]`: greater than 5 µM; `CC(C)(C)OC(=O)NC(Cc1ccccn1)C(=O)NCc1nc(-c2c[nH]c3ncccc23)n[nH]1` (configuration not stated): greater than 5 µM; `O=C(NCc1nc(-c2ccncc2)n[nH]1)c1cccc(Cl)c1[N+](=O)[O-]`: no more than 5 µM.
`O=C(C=Cc1ccccc1O)NCc1nc(-c2ccncc2)n[nH]1` displayed an IC50 greater than 5 µM.
Consider `O=C(NCc1nc(-c2ccncc2)n[nH]1)c1ncc[nH]1`, for which the 50% inhibitory concentration (IC50) is greater than 5 µM.
On to `Cc1c(O)ccc(C(=O)NCc2nc(-c3ccncc3)n[nH]2)c1O`, for which the 50% inhibitory concentration (IC50) was no more than 5 µM.
On to `O=C(C=Cc1ccccc1C(F)(F)F)NCc1nc(-c2c[nH]c3ncccc23)n[nH]1`, for which the IC50 is greater than 5 µM.
In turn, `O=C(NCc1nc(-c2ccncc2)n[nH]1)c1ccccn1` returned an IC50 greater than 5 µM.
Next, `Cc1c(C(=O)NCc2nc(-c3c[nH]c4ncccc34)n[nH]2)oc2ccccc12`: greater than 5 µM.
`Cc1cccc(CCC(=O)NCc2nc(-c3c[nH]c4ncccc34)n[nH]2)c1` returned an IC50 greater than 5 µM.
Turning to `O=C(NCc1nc(-c2ccncc2)n[nH]1)c1cccc(Cl)c1Cl`, the 50% inhibitory concentration (IC50) was greater than 5 µM.
Regarding `O=Cc1ccc(C(=O)NCc2nc(-c3c[nH]c4ncccc34)n[nH]2)cc1`, the concentration for half-maximal inhibition (IC50) was greater than 5 µM.
The same measure for `O=C(NCc1nc(-c2c[nH]c3ncccc23)n[nH]1)c1ccc2c(c1)OCO2`: greater than 5 µM; for `O=C(NCc1nc(-c2ccncc2)n[nH]1)c1csc2ccccc12`: greater than 5 µM; for `O=C(NCc1nc(-c2ccncc2)n[nH]1)c1cccc(F)c1F`: greater than 5 µM.
`O=C(NCc1nc(-c2c[nH]c3ncccc23)n[nH]1)c1cccc(I)c1` showed an IC50 greater than 5 µM.
Take `O=C(Cc1c(F)cccc1F)NCc1nc(-c2ccncc2)n[nH]1`: the half-maximal inhibitory concentration (IC50) is greater than 5 µM.
Compound `CCCCOc1ccc(C(=O)NCc2nc(-c3ccncc3)n[nH]2)cc1` came in with an IC50 greater than 5 µM.
Turning to `O=C(C=Cc1ccccc1F)NCc1nc(-c2ccncc2)n[nH]1`, the IC50 is greater than 5 µM.
Next, `O=C(C=Cc1cccc(O)c1)NCc1nc(-c2ccncc2)n[nH]1`: greater than 5 µM.
`CN(C=O)c1ccc(C(=O)NCc2nc(-c3ccncc3)n[nH]2)cc1` had an IC50 greater than 5 µM.
The same measure for `Cc1cccc([N+](=O)[O-])c1C(=O)NCc1nc(-c2c[nH]c3ncccc23)n[nH]1`: greater than 5 µM; for `O=C(NCc1nc(-c2c[nH]c3ncccc23)n[nH]1)c1cc(O)ccc1[N+](=O)[O-]`: greater than 5 µM; for `CS(=O)(=O)Nc1cccc(C(=O)NCc2nc(-c3c[nH]c4ncccc34)n[nH]2)c1`: no more than 5 µM.
Turning to `NC(=O)c1cc(-c2ccncc2)n[nH]1`, the IC50 is greater than 5 µM.
Next, `O=C(Cc1ccc(O)c(F)c1)NCc1nc(-c2c[nH]c3ncccc23)n[nH]1`: greater than 5 µM; `O=C(NCc1nc(-c2c[nH]c3ncccc23)n[nH]1)c1ccc(Oc2cccc(O)c2)cc1`: greater than 5 µM; `Cc1cccc(C(=O)NCc2nc(-c3ccncc3)n[nH]2)c1C`: greater than 5 µM.
For the compound `Cc1cc(C(=O)NCc2nc(-c3c[nH]c4ncccc34)n[nH]2)n[nH]1`, the IC50 was greater than 5 µM.
The compound `O=C(Cc1ccc(O)c(F)c1)NCc1nc(-c2ccncc2)n[nH]1` registered a half-inhibitory concentration (IC50) greater than 5 µM.
`CC(C)(C)OC(=O)N1CCCCC1C(=O)NCc1nc(-c2c[nH]c3ncccc23)n[nH]1` (configuration not stated) returned an IC50 greater than 5 µM.
In turn, `O=C(NCc1nc(-c2ccncc2)n[nH]1)c1cccc2ccccc12` displayed an IC50 greater than 5 µM.
Regarding `CC(=O)Oc1cccc(C(=O)NCc2nc(-c3c[nH]c4ncccc34)n[nH]2)c1`, the half-inhibitory concentration (IC50) was greater than 5 µM.
The compound `CC(C)(C)OC(=O)N1CCCCC1C(=O)NCc1nc(-c2ccncc2)n[nH]1` (configuration not stated) showed an IC50 greater than 5 µM.
Take `Cc1cccc(C(=O)NCc2nc(-c3c[nH]c4ncccc34)n[nH]2)c1[N+](=O)[O-]`: the IC50 was greater than 5 µM.
The same measure for `CC(C)(C)OC(=O)N1CCCC1C(=O)NCc1nc(-c2ccncc2)n[nH]1` (configuration not stated): greater than 5 µM.

The record behind these values is the Kinase Knowledgebase extract (Sharma et al. 2016).
